Usually melting point stands for the temperature, or range, at which the solid turns liquid.

The structures appear in SMILES notation.

Here are results for 90 compounds from a melting point compilation (Tetko et al.; mined from patent text by program, amines drawn as free bases though some values may be those of a salt).

On to `CC(C)CC(S)C(=O)NC(CC(C)C)C(=O)NC(Cc1ccc(-c2cccs2)nc1)C(=O)O` (stereo not given), for which the melting point is 156 to 158 °C.
As for `COc1ccc(-c2nc(SCC(C)=O)[nH]c2-c2ccc(OC)cc2)cc1`, the melting point was 115 to 118 °C.
As for `COC(=O)C(CC#Cc1cc2c(O)c(C(=O)NCc3ccc(Cl)cc3)cnc2s1)C(=O)OC`, the melting point lay within 197 to 198 °C.
The compound `O=c1[nH]c(=O)n(CCCN2CCN(C(c3ccccc3)c3ccccc3)CC2)c2ccccc12` came in with a melting point of 261 to 264 °C.
Regarding `CC(C)(O)c1ccoc1C(=O)c1[nH]c2cc(Cl)ccc2c1CC(=O)O`, the melting point is 229 to 230 °C.
Regarding `O=C(O)CCC(CC=Cc1ccccc1)(C(=O)C=Cc1ccc(Cl)cc1)c1ccccc1` (stereo not given), the melting point was 135 to 140 °C.
The figure for `COC(=O)C1=C(C)NC(C)=C(C(=O)OC)C1c1cc(Br)ccc1OCC(=O)NCCO[N+](=O)[O-]` is 166 to 167 °C; for `Brc1nc2cncnc2n1Cc1ccccc1` it is 119 to 121 °C.
The figure for `CN(C)C(=O)Nc1snc(S(C)=O)c1C#N` (stereo not given) is 178 to 179 °C; for `O=C(NCc1cn(-c2ccc(N3CCOCC3)c(F)c2)nn1)C(Cl)Cl` it is 190 °C; for `C/C(=C\c1ccc(C(=O)OCc2ccccc2)cc1)c1ccc2c(c1)C(C)(C)CCC2(C)C` it is 113 to 114 °C.
On to `CS(=O)(=O)Nc1cccc(Nc2nc(OCC3CCCCC3)c3nc[nH]c3n2)c1`, for which the melting point lay within 169 to 172 °C.
`O=C(O)C(NC(=O)C(F)(F)F)c1ccc(Cl)cc1` (stereo not given) had a melting point of 170 to 172 °C.
Compound `CCCc1c(OCCCCCNC(=O)NCCCCc2cccnc2)ccc(C(C)=O)c1O` returned a melting point of 73 to 76 °C.
Regarding `CC(C)(C)OC(=O)CN(C(=O)CN1C(=O)c2ccccc2C1=O)c1ccccc1`, the melting point is 126 °C.
To `Cc1cccc2c1CCC2=NNC(=N)N` belongs above 300 °C; to `COc1ccc(CN2C(=O)C(NC(=O)Nc3ccccc3)C(=O)N(CCC(C)C)c3ccccc32)cc1` (stereo not given), 206 to 208 °C; to `COc1ccc2c(c1)c(Cc1cc(=O)n(C)[nH]1)c(C)n2C(=O)c1ccc(Cl)cc1`, 146 to 147 °C.
Consider `CCCCCCCCCCCCCCCC(=O)Oc1ccc(C(O)CNCCc2ccc(OC)c(OC)c2)cc1` (stereo not given), for which the melting point was in the range of 79 to 81 °C.
The compound `Nc1ccccc1CCCC(C(=O)O)N1C(=O)c2ccccc2C1=O` (stereo not given) showed a melting point of 258 to 260 °C.
The compound `O=c1ccc(-c2c(-c3ccccc3)nn3ccccc23)c[nH]1` displayed a melting point of 222 to 224 °C.
The figure for `CCOC(=O)CN1CCN(C2=Nc3ccccc3Oc3ccc(Cl)cc32)CC1` is 123 to 124 °C.
In the case of `Nc1c2c(nc3ccccc13)CCSC2`, the melting point fell in the range of 214 to 216 °C.
For the compound `CCC(C)(NC(=O)c1cc(Cl)cc(Cl)c1)C(=O)CCl` (stereo not given), the melting point was in the range of 159 to 161 °C.
On to `CC(=NNC(=N)N)c1cccc(OCc2ccc3ccccc3c2)c1`, for which the melting point fell in the range of 176 to 178 °C.
Compound `O=C1OCCC12Sc1ccccc1C2=O` (stereo not given) gave a melting point of 125 to 127 °C.
For `CCc1ccc(OCCCCCCN2CCN(c3nccs3)CC2)cc1`, the melting point is 21 to 23 °C.
The figure for `CC1=CC(C)(C)N2C(=O)C(=O)c3cccc1c32` is 170 to 176 °C; for `N#CCCCOc1ccc(/C=C/C(=O)O)c(Oc2ncc(C(F)(F)F)cc2Cl)c1` it is 183 to 185 °C; for `CCn1c2c(c3ccc(OC)cc31)CN(C(=O)c1ccc(C)c3ccccc13)CC2` it is 209 to 210 °C.
`CN(C)CCC(=O)Nc1ccc2c(=O)c3ccc(NC(=O)CCN(C)C)cc3[nH]c2c1`: the melting point is above 320 °C.
The figure for `COc1nccc2c1COC2=O` is 90 °C; for `CC[C@@]1(CC(=O)NCc2ccccc2)CCCN2CCc3c([nH]c4ccccc34)[C@@H]21` it is 179 to 180 °C.
Turning to `CON=C(C)c1ccc(N2CC(CO)OC2=O)cc1` (stereo not given), the melting point was 149 to 150 °C.
Regarding `COc1cc(Nc2nccc(-c3ccc(Cl)nc3)n2)cc(OC)c1OC`, the melting point lay in the range of 191 to 192 °C.
In turn, `CCN1c2ncc(COc3ccc(O)cc3)cc2C(=O)N(C)c2ccc(Cl)nc21` gave a melting point of 199 to 200 °C.
`FC(F)(F)c1ccc(/C=C/c2nc(COc3ccc(CCCCn4ccnn4)cc3)co2)cc1` had a melting point of 160 to 161 °C.
The compound `Cn1c2c(c3cccc(C#N)c31)C(=O)NCC2` registered a melting point of 230 to 231 °C.
The figure for `CCCCc1nc(C(=O)C(C)C)c(C#N)[nH]1` is 88 to 89 °C; for `CC(=O)N(C)C(Cc1ccccc1N)c1ccc(C)s1` (stereo not given) it is 144 to 145 °C.
Consider `O=C(NC(=O)N1CCC(Oc2ccc(Cl)cc2)CC1)c1ccc(O)cc1`, for which the melting point amounted to 189 °C.
`Fc1cc(OC2CCOCC2)c2c(Nc3c(Cl)ccc4c3OCO4)ncnc2c1` yielded a melting point of 209 to 212 °C.
Take `O=C(O)Cc1ccc(NC(=O)C(COc2ccccc2Cl)NS(=O)(=O)c2ccc(Cl)cc2)cc1` (racemic): the melting point was in the range of 190 to 191 °C.
`CC(=CC(=O)O)c1ccc(-c2ccc(F)cc2)cc1`: the melting point was 58 to 60 °C.
With `CCN1CCC(C(c2ccccc2)c2ccccc2)C(=O)C1` (stereo not given), the melting point lay in the range of 73 to 74 °C.
`O=C(O)/C=C/c1ccc(-c2nc3c(=O)n(CCC4CCCCC4)c(=O)n(CCC4CCCCC4)c3[nH]2)cc1` displayed a melting point above 250 °C.
Compound `Cc1ccc(Cl)cc1N1CN(Cc2ccccc2)CN(C)C1=S` registered a melting point of 148 to 149 °C.
In the case of `CC(C)(C)OC(=O)NC1CCc2cc(C(=O)O)ccc2C1` (stereo not given), the melting point lay within 210 to 213 °C.
`CCCCc1ccc(Cn2cc(C3c4ccccc4C=Cc4ccccc43)c(=S)[nH]c2=O)cc1C(=O)O` came in with a melting point of 230 °C.
`CCCCC(O)c1nc2c(C(F)(F)F)cccc2c(O)c1C(=O)Nc1nccs1` (stereo not given) registered a melting point of 190 °C.
`Cc1cc(C(C)(C)C)c(O)c(N)c1N`: the melting point is 129 to 136 °C.
The compound `O=C1NC(=O)C(Cc2ccc3c(c2)CCC(Cc2ccc(OCc4ccccc4)cc2)O3)S1` (stereo not given) came in with a melting point of 118 to 120 °C.
With `CCCCCCCCCCCCCCCCCCCCOC(=O)P(=O)(OC)OC`, the melting point is 53 to 54 °C.
`O=C(Oc1cc(F)ccc1[N+](=O)[O-])c1cc2cc(CCl)ccc2oc1=O` gave a melting point of 205 to 208 °C.
To `CCOC(=O)N1CCC23CCCCC12c1ccccc1CC3` (stereo not given) belongs 67 to 69 °C; to `COC(=O)c1c(C)n(-c2cc(N)c(C)cc2C)cc(Cl)c1=O`, 215 °C; to `Oc1ccc(-c2ncc3ncc(Nc4cccnc4)cc3n2)cc1`, above 268 °C.
For the compound `COCc1c(C(=O)c2ccccc2)ncc2[nH]c3ccc(O)cc3c12`, the melting point worked out at 258 °C.
Turning to `O=C(c1ccc(Br)cc1)N1CCN(c2ccncc2)CC1`, the melting point lay within 128 to 129 °C.
For `Cc1cc(C(=O)CCc2cc(-c3ccc(C(F)(F)F)cc3)nn2CC2CC2)ccc1OC(C)(C)C(=O)O`, the melting point was in the range of 55 to 60 °C.
In the case of `CC(C)C(=O)c1ccc(OCc2ccc(CNC(=O)c3cn(C)cn3)cc2)c(C(F)(F)F)c1O`, the melting point amounted to 165 °C.
In the case of `CC1=C(O)C(=O)C(C)(C(C)O)O1` (stereo not given), the melting point was 112 to 114 °C.
Take `CC(=O)c1ccc2nc(N)[nH]c2c1`: the melting point was 228 to 234 °C.
Take `COC/C(=N/O)c1ccc(Sc2cc(F)cc(C3(OC)CCOCC3)c2)cc1`: the melting point was 155 °C.
`CCOCNC(=O)c1cc(OC)cc(Oc2cccc(C(F)(F)F)c2)n1`: the melting point fell in the range of 44 to 47 °C.
The figure for `COc1ccc2c(c1)Sc1cc(OC(C)=O)c3ccccc3c1N2` is 156 to 158 °C; for `N#CC1=C(N)N(c2ccccc2)CC1=O` it is 285 to 290 °C; for `CCCCCCOc1ccc2cc(OCCCCCC)ccc2c1` it is 78 to 79 °C.
Take `CCCCc1nc2c(N)nc(C)c(C)c2n1CCCCNS(=O)(=O)N(C)C`: the melting point was in the range of 130 to 131 °C.
The figure for `Nc1ccc2[nH]c(=O)ccc2c1` is 116 to 118 °C.
Compound `CCN(CC)CC(=O)N1c2ccccc2NC(=O)c2c1c(C)cn2C` displayed a melting point of 174 to 175 °C.
The figure for `COC(=O)c1nc(-c2ccc(C(F)(F)F)cc2)nc(N)c1Cl` is 204 to 205 °C.
The compound `COCC(=O)NCc1cccc2c1C(=O)N(C1CCC(=O)NC1=O)C2=O` (stereo not given) yielded a melting point of 196 to 198 °C.
Take `CC(=O)c1c[nH]c(CO)n1`: the melting point lay within 147 to 148 °C.
Turning to `COc1ccc(-c2cc(=S)[nH]nc2-c2ccc(OC)c(F)c2)cc1`, the melting point is 222 to 223 °C.
Consider `Nc1snc2nc(N3CCCC3)sc12`, for which the melting point lay in the range of 262 to 264 °C.
As for `COc1cccc(-c2c(NC(=O)Nc3c(C(C)C)cccc3C(C)C)c(=O)n(CCOc3ccccc3)c3ncccc23)c1`, the melting point lay in the range of 168 to 170 °C.
The compound `Cc1cc(S(F)(F)(F)(F)F)c(S(C)(=O)=O)cc1C(=O)NC(=N)N` showed a melting point of 254 to 256 °C.
Compound `CC1(C)CCc2cc(O)c(O)cc2C1=O` showed a melting point of 163 to 165 °C.
As to `O=C1CCN(c2cc(Cl)ncn2)CC1`, the melting point is 100 to 103 °C.
For the compound `CC(=O)N(C)C1CCC(O)(c2ccc(Cl)c(Cl)c2)c2ccccc21` (stereo not given), the melting point fell in the range of 146 to 148 °C.
On to `COc1ccc(/C=C(\C#N)c2ccc(Cl)cc2Cl)cc1OC1CCCC1`, for which the melting point fell in the range of 105 to 107 °C.
`COc1cccc(C(=O)Nc2ccc3ccc(Cl)nc3n2)c1`: the melting point came out at 178 °C.
`O=c1c(Cc2ccc(-c3ccccc3)cc2)coc2cc(OS(=O)(=O)C(F)(F)F)ccc12` came in with a melting point of 110 °C.
The compound `COc1c(C)cnc(CSc2nc3cc4c(cc3[nH]2)OC(F)C(F)(F)O4)c1C` (stereo not given) displayed a melting point of 138 to 140 °C.
For the compound `O=S(=O)(c1ccccc1)c1ncc(F)cn1`, the melting point was determined as 105 °C.
In turn, `Cc1oc(-c2ccccc2)nc1C(N)=O` returned a melting point of 154 to 157 °C.
The figure for `CC(N1C(=O)C(=O)N(c2ccc(C(C)(C)C)cc2)C1=S)C(C)(C)C` (stereo not given) is 209 to 210 °C; for `CCCCOC(=O)c1cc(=O)c2c3c(cc(Cl)c2o1)-c1ccc(S(=O)(=O)O)cc1CO3` it is 95 to 97 °C; for `CC(=O)N[C@@H]1[C@H](O)CC(C(=O)O)=C[C@H]1OC(C)C` it is 64 to 65 °C.
